# Reference: US20240182525A1, “NOVEL BICYCLIC COMPOUND, OPTICAL ISOMER THEREOF OR PHARMACEUTICALLY ACCEPTABLE SALT THEREOF, USE THEREOF, AND PREPARATION METHOD THEREFOR” (KOREARESEARCH INSTITUTE OF BIOSCIENCE AND BIOTECHNOLOGY, priority 2021, published 2024)
# Key:
# MC3T3-E1 cells = assay: ALP activity analysis in MC3T3-E1 cell lysate; assay type: cell-based, mouse; details: 5, 10, and 20 νM, 7 days, absorbance 405 nm, FIG. 16
# Experimental: In order to analyze the effect of the compound of Chemical Formula 1 according to the present invention on ALP activity, MC3T3-E1 cells, which are mouse osteoblasts, were inoculated into a 96-well plate at a concentration of 5×10^3 cell/well, and incubated overnight in growth media containing alpha-minimum essential media (alpha-MEM, JBI #008-53) supplemented with 10% fetal bovine serum (FBS, Gibco #16000, USA) and 1× antibiotics (Gibco #15240062, USA). As a negative control, an alpha minimum essential medium containing 10% FBS was used. As a positive control, 100 μg/ml of ALP-activating ascorbic acid and 10 mM of β-glycerophosphate were mixed, and the positive control was exchanged with media added with 5, 10, and 20 νM of Chemical Formula 1-1 (6-J) on Day 3, and treated for 7 days. After 7 days, the media were removed and the cells were washed with PBS, and the cultured MC3T3-E1 cells were lysed with 0.1% TritonX-100 (in PBS) solution and centrifuged to obtain only the supernatant. A predetermined amount of supernatant and ALP were added and reacted for 30 minutes, and then the absorbance was confirmed at 405 nm.
# [1] = test system: osteogenic differentiation-related genes (mCol1a1, mOsteocalcin, mOsterix); assay: RT-PCR of osteogenic differentiation-related genes; assay type: cell-based, mouse; details: Day 7 of differentiation, FIG. 17
# Text: In order to confirm the effect of the compound of Chemical Formula 1 according to the present invention on promoting osteogenic differentiation-related genes, the expression levels of genes promoting osteogenesis were confirmed.
# To confirm genetic changes during the differentiation process, total RNA was isolated on Day 7 of differentiation using Trizol reagent (Invitrogen, CA, USA) according to the manufacturer's instructions. The cultured cells were washed twice with cold PBS and lysed with 1 ml of Trizol reagent. To the resulting product, 200 μl of chloroform was added and mixed, followed by centrifugation at 4° C. and 12000 rpm for 20 minutes to separate the supernatant. The same amount of isopropanol was added to the separated supernatant, mixed, and centrifuged again at 4° C. and 12000 rpm. The supernatant was removed, and the remaining pellet was washed three times with 70% ethanol to separate RNA. For RT-PCR, the same amount of total RNA (5 μl) was put into the RT-PCR amplification kit and reacted at 45° C. for 60 minutes to prepare complementary DNA (cDNA). RT-PCR was performed on the cDNA by using AccuPower®RT/PCR PreMix (Bioneer, Korea). Briefly, 2 μl each of 75 mM rATP, rUTP, rCTP, rGTP, enzyme mixture, and 10× reaction buffer was added to 8 μl of the cDNA solution prepared above, followed by amplification according to the manufacturer's instructions, and the quantity and quality of the amplified mRNA was evaluated using nanodrops and 1% agarose gel electrophoresis.
structure (smiles),measurement,setting,value
CC(C)CC1NC(=O)C2CCCN2C(=O)C(C(O)C(C)C)NC(=O)CNC(=O)C(C(C)O)NC(=O)C2NC(=O)C(NC(=O)/C=C/c3ccccc3C(O)C(C)O)C(C)OC(=O)C(CC(N)=O)NC(=O)C(NC(=O)C(O)NC1=O)C(O)c1ccc(O)c(c1)Oc1ccc2cc1 (stereo not shown) [Chemical Formula 1-1],ALP activity,MC3T3-E1 cells,increased
same,mRNA expression level of mCol1a1,[1],increase
same,mRNA expression level of mOsteocalcin,[1],increase
same,mRNA expression level of mOsterix,[1],increase
